Read-outs that look alike come from different tables or passages of the source.
How the values were obtained:
[1] = Human Liver Microsomal Stability Test; format: in vitro ADME; details: human liver microsomes, 1 μM test compound, 37° C.; for micosomal stability Cl: Table 2a
Procedure: The metabolic degradation for a specific SYK-inhibitor is performed at 37° C. with pooled human liver microsomes (human liver microsomes are commercially available as “BD UltraPool™” by Corning Life Sciences, Fogostraat 12, 1060 LJ Amsterdam, The Netherlands). The final incubation volume of 100 μl per time point contains TRIS buffer pH 7.6 at RT (0.1 M), magnesium chloride (5 mM), microsomal protein (1 mg/ml) and the test compound at a final concentration of 1 μM.
Following a short preincubation period at 37° C., the reaction is initiated by addition of beta-nicotinamide adenine dinucleotide phosphate in its reduced form (NADPH, 1 mM) and terminated by transfering an aliquot into solvent after different time points. Additionally, the NADPH-independent degradation is monitored in incubations without NADPH, terminated at the last time point.
The quenched (terminated) incubations are then pelleted by centrifugation (10000 g, 5 min).
An aliquot of the supernatant is assayed by LC-MS/MS for the remaining amount of parent compound. The half-life (t1/2 INVITRO) is determined by the slope of the semilogarithmic plot of the concentration-time profile.
The intrinsic clearance (CL_[…]) is calculated by considering the amount of protein in the incubation:
CL_[…] [μl/min/mg protein]=(Ln 2/(t1/2 INVITRO [min] * protein content [mg/ml]))*1000
The protein content [mg/ml] was determined with the “Bicinchoninic Acid Kit” of Sigma Aldrich (commercially available).
The upscaled intrinsic Clearance (CL_UP_INT) is calculated by considering the liver weight [g liver/kg body weight] and the microsomal recovery [mg protein/g liver]:
CL_UP_INT [ml/min/kg]=0.001*CL_[…]*liver weight*microsomal recovery • with microsomal recovery=45 mg protein/g liver • with liver weight=25.7 g liver/kg body weight
The percent hepatic blood flow (% Qh) is finally calculated by considering the human liver blood flow Q [ml/min/kg]:
% Qh [%]=((Q*CL_UP_INT)/(Q+CL_UP_INT)/Q)*100 • with liver blood flow (Q)=20.7 ml/min/kg.

[2] = target: T1, Recombinant human Aurora B (amino acids 1-344), His tag (Homo sapiens, UniProt Q96GD4); assay: Aurora B Kinase Test (ADP Glo luminescence); format: biochemical
T1 construct: Recombinant human Aurora B (amino acids 1-344, clone number DU1773)
T1 sequence (Q96GD4 whole entry, the tested form may be a part): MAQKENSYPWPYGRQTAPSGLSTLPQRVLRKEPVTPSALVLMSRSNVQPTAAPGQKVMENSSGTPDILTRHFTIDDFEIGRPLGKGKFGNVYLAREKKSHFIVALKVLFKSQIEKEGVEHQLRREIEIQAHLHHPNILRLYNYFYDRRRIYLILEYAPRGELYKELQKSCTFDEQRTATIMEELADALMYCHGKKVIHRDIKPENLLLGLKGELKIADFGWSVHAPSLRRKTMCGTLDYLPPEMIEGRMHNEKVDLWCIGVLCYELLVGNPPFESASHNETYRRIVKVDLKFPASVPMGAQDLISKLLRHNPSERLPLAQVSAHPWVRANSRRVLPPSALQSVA
Procedure: The activity of the Aurora B kinase protein was determined using the ADP Glo® Luminescence Kinase test (Promega; V9103X).
Serial Dilution is done in 1:10 steps in 100% DMSO.
Then 20 μl Kinase detection mix (Detection Buffer #V913B Promega; Kinase Detection Substrate #V914B Promega) were added and incubated for 40 minutes at room temperature.
(§1) The output file of the reader is a csv file that contains the well number and measured RLU. For data evaluation and calculation, the measurement of the negative control was set as 0% ctrl and the measurement of the positive control was set as 100% ctrl. Based on this values the % value for the measurement of each substance concentration was calculated using an Assay Explorer software (Accelrys). Normally, the % ctrl values calculated are between 0% and 100% values but may also occur outside these limits in individual cases based on variability or compound characteristics. The IC50 values were calculated from the % ctrl values using Assay Explorer software.Calculation: [y=(a−d)/(1+(x/c)̂b)+d], a=low value, d=high value; x=conc M; c=IC50 M; b=hill; y=% ctrl.

FLT3 = target: T2, FLT3 (Homo sapiens, UniProt P36888); assay: FLT3 Kinase Test (Z'-LYTE); format: biochemical
T2 construct: purchased Invitrogen PV3182
T2 sequence (P36888 564-993 limits assumed): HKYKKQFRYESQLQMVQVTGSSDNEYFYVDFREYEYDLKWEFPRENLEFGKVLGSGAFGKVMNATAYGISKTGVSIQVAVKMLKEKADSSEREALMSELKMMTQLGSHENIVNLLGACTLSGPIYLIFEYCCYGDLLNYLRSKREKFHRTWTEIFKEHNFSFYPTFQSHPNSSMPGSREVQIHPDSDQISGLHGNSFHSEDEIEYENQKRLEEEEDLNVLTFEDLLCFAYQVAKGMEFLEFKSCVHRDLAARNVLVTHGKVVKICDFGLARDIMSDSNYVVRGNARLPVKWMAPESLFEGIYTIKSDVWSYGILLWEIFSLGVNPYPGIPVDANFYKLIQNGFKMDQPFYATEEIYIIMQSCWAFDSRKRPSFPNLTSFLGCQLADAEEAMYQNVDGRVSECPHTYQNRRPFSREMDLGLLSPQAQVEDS
Procedure: FLT3 is obtained from Invitrogen in 50 mM Tris (pH7.5); 100 mM NaCl; 0.05 mM EDTA, 0.05% NP-40, 2 mM DTT; 50% Glycerol #PV3182; Lot 286671; sequence see below). The enzyme is diluted to 720 nM (35 μg/ml) in enzyme dilution buffer and 10 μl aliquots are stored at −80° C.
The activity of FLT3 is measured using the Z′-LYTETM assay technology from Invitrogen (#PV3191)
The assay is performed in 384 black plates from Corning (#3676) in a final volume of 10 μl by adding 5 μl of kinase peptide mix and 2.5 μl of compound dilution. The reaction is started by addition of 2.5 μl of the 4×]ATP solution.
(§2) Positive controls are reaction mixtures containing no test compound; negative controls (blanks) are reaction mixtures containing no kinase. As a further control, the phosphopeptide solution is added to wells without kinase(=100% phosphorylation control). The non inhibited kinase reaction will result in a phosphorylation corresponding to 20%-30% of the phosphorylation control.
The reaction is performed for 1 h at room temperature before 5 μl of the development solution is added. After a further incubation for 1 h at room temperature 5 μl of the stop reagent is added. The plates are read on a Flex Station II 384 (Molecular Devices).
The output text file is evaluated in an “MS-Excel-VB-Makro” and “GraphPadPrism”(Version 5) (GraphPad Software Inc.) is used to calculate the results. Data for the inhibition of FLT3 are reported in M. data for the inhibition of the protease are reported in % CTL.

Human GSK3beta = target: T3, Human GSK3beta (Homo sapiens, UniProt P49841); assay: GSK 3β Kinase-Test (Z'-LYTE); format: biochemical
T3 construct: purchased University Dundee/Scotland (Dr. James Hastie, Dept. of Biochemistry); host or cells: SF21 insect cells
T3 sequence (P49841 whole entry): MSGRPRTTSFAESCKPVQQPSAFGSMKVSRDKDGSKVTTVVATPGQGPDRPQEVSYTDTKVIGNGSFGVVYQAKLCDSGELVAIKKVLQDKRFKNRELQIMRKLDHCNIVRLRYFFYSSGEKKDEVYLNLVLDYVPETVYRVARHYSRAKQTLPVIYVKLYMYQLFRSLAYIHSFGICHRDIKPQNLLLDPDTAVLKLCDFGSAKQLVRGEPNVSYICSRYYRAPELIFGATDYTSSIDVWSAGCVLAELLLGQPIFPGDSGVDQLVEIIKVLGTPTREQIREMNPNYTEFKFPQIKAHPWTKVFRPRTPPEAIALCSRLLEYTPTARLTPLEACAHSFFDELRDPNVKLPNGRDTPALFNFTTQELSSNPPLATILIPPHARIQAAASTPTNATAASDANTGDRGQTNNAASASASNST
Procedure: Human GSK3beta (expressed and purified from SF21 cells)is obtained from the University Dundee/Scotland (Dr. James Hastie—Dept. of Biochemistry) in 50 mM Tris (pH7.5); 150 mM NaCl; 0.1 mM EGTA, 270 mM Succrose, 0.1% R-mercaptoethanol, 1 mM benzamidine, 0.2 mM PMSF; sequence see below). The enzyme is diluted to 3.56 μM (168 μg/ml) in enzyme dilution buffer and 6 μl aliquots are stored at −80° C.
The activity of GSK3β kinase protein is measured using the Z′-LYTETM assay technology from Invitrogen (#PV3324).
The assay is performed in 384 black plates from Corning (#3676) in a final volume of 10 μl by adding 5 μl of kinase peptide mix and 2.5 μl of compound dilution. The reaction is started by addition of 2.5 μl of the 4× ATP solution.
as §2, with “ATP.” for “kinase.”, “kinase and without ATP(=100%” for “kinase(=100%”
The reaction is performed 1 h at room temperature. After 1 h 5 μl of the development solution is added. After a further incubation for 1 h at room temperature 5 μl of the stop reagent is added. Finally the plates are read on a Flex Station II 384 (Molecular Devices).
The output text file is evaluated in an “MS-Excel-VB-Makro” and “Graph Pad Prism”(Version 5) (GraphPad Software Inc.) is used to calculate the results. Data for the inhibition of GSK3beta are reported in M. data for the inhibition of the protease are reported in % CTL.

[3] = target: T4, Recombinant human Syk (amino acids 342-635), GST fusion (Homo sapiens, UniProt P43405); assay: Syk Kinase Test (Kinase Glo luminescence); format: biochemical; details: Table 1; read-out: SYK-inhibition IC50-value
T4 construct: Recombinant human Syk (amino acids 342-635); made in house
Procedure: as §1, with “measured relative light units (RLU).” for “measured RLU.”, “as 100%” for “as 0%”, “as 0%” for “as 100%”, “Explorer software.” for “Explorer software.Calculation: [y=(a−d)/(1+(x/c)̂b)+d], a=low value, d=high value; x=conc M; c=IC50 M; b=hill; y=% ctrl.”

[4] = patients with ITP (Podolanczuk et al; Blood (2009)); cited from earlier work
[5] = Table 2c, compounds of WO 2011/092128, read-out: IC50 (AURB-Inhibition)
[6] = Table 2c, compounds of WO 2011/092128, read-out: IC50 (FLT3-Inhibition)
[7] = Table 2c, compounds of WO 2011/092128, read-out: IC50 (GSK3beta-Inhibition)
[8] = Table 1, read-out: AURB-inhibition IC50-value
[9] = Table 2a, compounds of the invention, read-out: AURB-inhibition IC50-value
[10] = Table 1, read-out: FLT3-inhibition IC50-value
[11] = Table 2a, compounds of the invention, read-out: GSK3-beta inhib. IC50-value

## CC(C)n1cc(-c2cc(O[C@H](C)[C@H]3CNC(=O)C3)c3cccnc3c2)cn1 [Example 115]
[1]; Table 2b
  microsomal stability Cl: <23 % Qh

## CCCn1cc(-c2cc(O[C@H](C)[C@H]3CNC(=O)C3)c3cccnc3c2)cn1 [Example 114]
[1]; Table 2b
  microsomal stability Cl: 26 % Qh

## Cc1c(-c2cc(O[C@H](C)[C@H]3CNC(=O)C3)c3cccnc3c2)cnn1C [Example 112]
[1]; Table 2b
  microsomal stability Cl: <23 % Qh

## C[C@@H](Oc1nc(-c2ccc(C(F)(F)F)nc2)cc2ncccc12)[C@H]1CNC(=O)C1 [Example 3, reference compound]
[2]; [5]
  IC50: 1.04 µM
FLT3; [6]
  IC50: 1.82 µM
Human GSK3beta; [7]
  IC50: > 10 µM
[1]; Table 2c
  microsomal stability Cl: 24 % Qh

## Cc1cc2c(O[C@H](C)[C@H]3CNC(=O)C3)cc(-c3cnn(C(C)(C)C)c3)cn2n1 [Example 34, (4R)-4-[(1R)-1-[6-(1-tert-Butylpyrazol-4-yl)-2-methyl-pyrazolo[1,5-a]pyridin-4-yl]oxyethyl]pyrrolidin-2-one]
[3]
  IC50: 0.0122 µM
[2]; [8]
  IC50: > 50 µM
[2]; [9]
  IC50: > 50 µM
FLT3; [10]
  IC50: 7.93 µM
Human GSK3beta; [11]
  IC50: > 10 µM
[1]
  micosomal stability Cl: <23 % Qh

## COc1cc(Nc2ncc(F)c(Nc3ccc4c(n3)N(COP(=O)(O)O)C(=O)C(C)(C)O4)n2)cc(OC)c1OC [R788 (R406)]
[4]
  platelet counts: improved platelet counts

## Cc1nc2cc(-c3cnn(C(C)(C)C)c3)cc(O[C@H](C)[C@H]3CNC(=O)C3)c2[nH]1 [Example 6, (4R)-4-[(1R)-1-[[6-(1-tert-Butylpyrazol-4-yl)-2-methyl-1H-benzimidazol-4-yl]oxy]ethyl]pyrrolidin-2-one]
[3]
  IC50: 0.151 µM
[2]; [8]
  IC50: > 50 µM
[2]; [9]
  IC50: > 50 µM
FLT3; [10]
  IC50: 35.8 µM
Human GSK3beta; [11]
  IC50: > 10 µM
[1]
  micosomal stability Cl: <23 % Qh

## C[C@@H](Oc1nc(-c2ccc(N3CCOCC3)nc2)cc2ncccc12)[C@H]1CNC(=O)C1 [Example 45, reference compound]
[2]; [5]
  IC50: 0.086 µM
FLT3; [6]
  IC50: 0.1 µM
Human GSK3beta; [7]
  IC50: > 10 µM
[1]; Table 2c
  microsomal stability Cl: 53 % Qh

## Cc1nc2cc(-c3cnn(C(C)(C)C)c3)nc(O[C@H](C)[C@H]3CNC(=O)C3)n2n1 [Example 84, (4R)-4-[(1R)-1-[[7-(1-tert-Butylpyrazol-4-yl)-2-methyl-[1,2,4]triazolo[1,5-c]pyrimidin-5-yl]oxy]ethyl]pyrrolidin-2-one]
[3]
  IC50: 0.637 µM
[2]; [8]
  IC50: > 50 µM
[2]; [9]
  IC50: > 50 µM
FLT3; [10]
  IC50: > 50 µM
FLT3; Table 2a, compounds of the invention, read-out: FLT3-inhibition IC50-value
  IC50: > 50 µM
Human GSK3beta; [11]
  IC50: > 10 µM
[1]
  micosomal stability Cl: <23 % Qh
